Source: patent US6521654B2, “Substituted imidazolidine derivatives, their preparation, their use and pharmaceutical preparations including them” (Aventis Pharma Deutschland GmbH, priority 1997, dated 2003)

Biological target: T1, interaction between VCAM-1 and VLA-4 (Homo sapiens, UniProt P05556+P13612)
T1 construct: supplied in their natural form as surface molecules on human U937 cells; host or cells: U937 cells carry endogenous VLA-4; The partner hVCAM-1(1-3)-IgG was made in house in transfected COS cells (ATCC CRL1651) and used as culture supernatant
T1 sequence (P13612 34-1032): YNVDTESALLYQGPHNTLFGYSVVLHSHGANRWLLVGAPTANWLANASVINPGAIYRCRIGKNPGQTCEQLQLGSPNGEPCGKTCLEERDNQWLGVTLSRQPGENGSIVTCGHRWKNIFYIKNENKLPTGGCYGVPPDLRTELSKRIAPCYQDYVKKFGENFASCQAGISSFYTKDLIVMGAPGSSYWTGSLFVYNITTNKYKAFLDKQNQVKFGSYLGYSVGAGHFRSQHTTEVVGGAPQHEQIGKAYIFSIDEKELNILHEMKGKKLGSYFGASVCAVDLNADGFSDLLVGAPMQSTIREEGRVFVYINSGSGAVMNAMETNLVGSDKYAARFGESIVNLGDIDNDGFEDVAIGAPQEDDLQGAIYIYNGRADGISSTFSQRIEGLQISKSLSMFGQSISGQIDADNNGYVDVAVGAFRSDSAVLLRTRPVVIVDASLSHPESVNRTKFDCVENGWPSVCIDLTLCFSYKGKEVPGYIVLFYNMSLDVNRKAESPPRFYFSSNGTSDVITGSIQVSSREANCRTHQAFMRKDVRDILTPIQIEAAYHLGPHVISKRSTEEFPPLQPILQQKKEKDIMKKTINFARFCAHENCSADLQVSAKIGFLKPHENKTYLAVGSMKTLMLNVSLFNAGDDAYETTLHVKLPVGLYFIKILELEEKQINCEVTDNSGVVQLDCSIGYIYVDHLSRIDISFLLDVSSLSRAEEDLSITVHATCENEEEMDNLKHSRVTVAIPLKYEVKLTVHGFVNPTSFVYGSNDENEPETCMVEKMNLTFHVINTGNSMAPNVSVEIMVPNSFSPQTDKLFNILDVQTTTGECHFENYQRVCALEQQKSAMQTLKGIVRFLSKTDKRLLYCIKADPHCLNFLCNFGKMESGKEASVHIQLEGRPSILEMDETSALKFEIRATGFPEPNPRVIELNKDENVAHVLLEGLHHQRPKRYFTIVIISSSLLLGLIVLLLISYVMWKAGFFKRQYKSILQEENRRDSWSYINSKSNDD
T1 sequence (P05556 21-798): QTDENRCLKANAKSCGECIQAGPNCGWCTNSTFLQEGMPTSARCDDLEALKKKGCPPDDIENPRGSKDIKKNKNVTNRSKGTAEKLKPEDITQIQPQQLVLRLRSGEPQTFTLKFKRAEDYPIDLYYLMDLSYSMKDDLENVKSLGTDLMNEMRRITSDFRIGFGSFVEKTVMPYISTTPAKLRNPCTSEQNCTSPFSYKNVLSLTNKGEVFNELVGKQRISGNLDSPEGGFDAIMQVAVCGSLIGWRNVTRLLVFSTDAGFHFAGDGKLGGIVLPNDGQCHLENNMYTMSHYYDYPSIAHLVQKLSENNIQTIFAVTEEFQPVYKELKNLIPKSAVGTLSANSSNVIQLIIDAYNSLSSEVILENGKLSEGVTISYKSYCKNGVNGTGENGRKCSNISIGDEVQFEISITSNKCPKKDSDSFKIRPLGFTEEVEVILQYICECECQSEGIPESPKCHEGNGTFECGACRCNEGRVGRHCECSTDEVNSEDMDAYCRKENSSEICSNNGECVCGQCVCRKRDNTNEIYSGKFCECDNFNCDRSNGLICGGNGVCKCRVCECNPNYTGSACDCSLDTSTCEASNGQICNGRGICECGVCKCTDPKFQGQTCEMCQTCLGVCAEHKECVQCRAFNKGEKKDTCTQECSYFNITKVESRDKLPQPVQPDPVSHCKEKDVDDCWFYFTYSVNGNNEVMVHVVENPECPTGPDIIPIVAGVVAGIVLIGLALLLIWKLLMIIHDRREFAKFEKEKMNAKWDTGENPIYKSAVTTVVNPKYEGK
Test: U937/VCAM-1 cell adhesion test (adhesion of U937 cells to hVCAM-1(1-3)-IgG)
Format: cell-based
Settings: concentration leading to 50% inhibition of adhesion of human U937 cells (ATCC CRL 1593) to hVCAM-1(1-3)-IgG
Excerpt: The test method used for the activity of the compounds of the formula I on the interaction between VCAM-1 and VLA-4 is the assay described below which is specific for this interaction. The cellular binding components, i.e., the VLA-4 integrins, are supplied in their natural form as surface molecules on human U937 cells (ATCC CRL 1593). which belong to the leucocytes group. The specific binding components used are genetically engineered recombinant soluble fusion proteins, consisting of the extracytoplasmatic domain of human VCAM-1 and the constant region of a human immunoglobulin of the subclass IgG1.
Assay for the Measurement of the Adhesion of U937 Cells (ATCC CRL 1593) to hVCAM-1(1-3)-IgG
1. Preparation of Human VCAM-1 (1-3)-IgG and Human CD4-IgG
A genetic construct for the expression of the extracellular domain of human VCAM-1, associated with the genetic sequence of the heavy chain of human immunoglobulin IgG1 (hinge, CH2 and CH3 regions), from Dr. Brian Seed, Massachusetts General Hospital. Boston, USA was employed (cf. Damle and Aruffo, Proc. Natl. Acad. Sci. USA 1991, 88, 6403-6407). The soluble fusion protein hVCAM-1(1-3)-IgG contained the three amino-terminal extracellular immunoglobulin-like domains of human VCAM-1 (Damle and Aruffo, Proc. Natl. Acad. Sci. USA 1991, 88, 6403-6407). CD4-IgG (Zettimeissl et al., DNA and Cell Biology 1990, 9, 347) served as a fusion protein for negative controls. The recombinant proteins were expressed as soluble proteins after DEAE/dextran-mediated DNA transfection in COS cells (ATCC CRL1651) according to standard procedures (Ausubel et al., Current Protocols in Molecular Biology, John Wiley & Sons, Inc., 1994).
2. Assay for the Measurement of the Adhesion of U937 Cells to hVCAM-1 (1-3)-IgG
2.1 96-well microtiter test plates (Nunc Maxisorb) were incubated at room temperature for 1 hour with 100 μl/well of a goat-anti-human IgG antibody solution (10 μg/ml in 50 mM tris, pH 9.5). After removal of the antibody solution, washing was carried out once with PBS.
2.2 150 μl/well of a blocking buffer (1% BSA in PBS) were incubated on the plates at room temperature for 0.5 hour. After removal of the blocking buffer, washing was carried out once with PBS.
2.3 100 μl per well of a cell culture supernatant of transfected COS cells were incubated on the plates at room temperature for 1.5 hours. The COS cells were transfected with a plasmid which codes for the three N-terminal immunoglobulin-like domains of VCAM-1, coupled to the Fc part of human IgG1 (hVCAM-1 (1-3)-IgG). The content of hVCAM-1 (1-3)-IgG was about 0.5-1 μg/ml. After removal of the culture supernatant, washing was carried out once with PBS.
2.4 The plates were incubated at room temperature for 20 minutes with 100 μl/well of Fc receptor blocking buffer (1 mg/ml of γ-globulin, 100 mM NaCl, 100 μM MgCl2, 100 μM MnCl2, 100 μM CaCl2, 1 mg/ml of BSA in 50 mM HEPES, pH 7.5). After removal of the Fc receptor blocking buffer, washing was carried out once with PBS.
2.5 20 μl of binding buffer (100 mM NaCl, 100 μM MgCl2, 100 μM MnCl2, 100 μM CaCl2, 1 mg/ml of BSA in 50 mM HEPES, pH 7.5) were initially introduced, and the substances to be tested were added in 10 μl of binding buffer and incubated for 20 minutes. The controls used were antibodies against VCAM-1 (BBT, No. BBA6) and against VLA-4 (immunotech, No. 0764).
2.6 U937 cells were incubated in Fc receptor blocking buffer for 20 minutes and then added by pipette in a concentration of 1×10^6/ml and in an amount of 100 μl per well ([…]).
2.7 The plates were slowly immersed at an angle of 45° in stop buffer (100 mM NaCl, 100 μM MgCl2, 100 μM MnCl2, 100 μM CaCl2 in 25 mM tris, pH 7.5) and shaken off. The process was repeated.
2.8 50 μl/well of a dye solution (16.7 μg/ml of Hoechst Dye 33258, 4% formaldehyde, 0.5% triton X-100 in PBS) were then incubated on the plates for 15 minutes. […]

Work on `CC(C)CC(C(=O)N[C@@H](CC(=O)O)C(=O)N[C@H](C(=O)O)c1ccccc1)N1C(=O)N(Cc2ccc(NC(=O)Nc3ccccc3)cc2)C(C)(c2ccccc2)C1=O` (mixture of isomers) [Example 1, ((RS)-2-((RS)-4-Phenyl-3-(4-(3-phenylureido)benzyl)-4-methyl-2,5-dioxoimidazolidin-1-yl)-2-(2-methylpropyl)acetyl)-L-aspartyl-L-phenylglycine] yielded an IC50 of 4 nM.
`COc1ccc([C@H](CC(=O)O)NC(=O)C(CC(C)C)N2C(=O)N(Cc3ccc(NC(=O)Nc4ccccc4C)cc3)C(C)(c3ccccc3)C2=O)c(OC)c1` (mixture of isomers) [Example 189, (S)-3-((RS)-2-((RS)-4-Methyl-4-phenyl-3-(4-(3-(2-methylphenyl)ureido)benzyl)-2,5-dioxoimidazolidin-1-yl)-2-(2-methylpropyl)acetylamino)-3-(2,4-dimethoxyphenyl)propionic Acid] gave an IC50 of 50 nM.
For `Cc1ccccc1NC(=O)Nc1ccc(CN2C(=O)N([C@@H](CC(C)C)C(=O)NC(CC(=O)O)c3ccccc3)C(=O)C2(C)C)cc1` (mixture of isomers) [Example 196, (RS)-3-((S)-2-(4,4-Dimethyl-3-(4-(3-(2-methylphenyl)ureido)benzyl)-2,5-dioxoimidazolidin-1-yl)-2-(2-methylpropyl)acetylamino)-3-phenylpropionic Acid], the IC50 was 25 nM.
`CCCCS(=O)(=O)NC(CNC(=O)C(CC(C)C)N1C(=O)N(Cc2ccc(NC(=O)Nc3ccccc3C)cc2)C(C)(c2ccccc2)C1=O)C(=O)O` (racemic) [Example 195, (RS)-2-Butylsulfonylamino-3-((RS)-2-((RS)-4-methyl-4-phenyl-3-(4-(3-(2-methyl-phenyl)ureido)benzyl)-2,5-dioxoimidazolidin-1-yl)-2-(2-methylpropyl)acetylamino)propionic Acid] showed an IC50 of 23 nM.
With `Cc1ccccc1NC(=O)Nc1ccc(CN2C(=O)N(C(CC(C)C)C(=O)N[C@@H](CC(=O)O)C(=O)N[C@H](C(=O)OC(C)(C)C)c3ccccc3)C(=O)C2(C)c2ccccc2)cc1` (mixture of isomers) [Example 219] the IC50 was 175 nM.
Molecule `CC(C)C[C@@H](C(=O)N[C@@H](CC(=O)O)c1ccc2c(c1)OCO2)N1C(=O)N(Cc2ccc(NC(=O)Nc3ccccc3)cc2)C(C)(C)C1=O` [Example 5, (S)-3-((S)-2-(4,4-Dimethyl-3-(4-(3-phenylureido)benzyl)-2,5-dioxoimidazolidin-1-yl)-2-(2-methylpropyl)acetylamino)-3-(3,4-methylenedioxyphenyl)propionic Acid] has an IC50 of 5 nM.
`CC(C)C[C@@H](C(=O)N[C@H](C)CC(=O)O)N1C(=O)N(Cc2ccc(NC(=O)Nc3ccccc3)cc2)C(C)(C)C1=O` [Example 6, (R)-3-((S)-2-(4,4-Dimethyl-3-(4-(3-phenylureido)benzyl)2,5-dioxoimidazolidin-1-yl)-2-(2-methylpropyl)acetylamino)-3-methylpropionic Acid] showed an IC50 of 30 nM.
Work on `Cc1ccccc1NC(=O)Nc1ccc(CN2C(=O)N([C@@H](CC(C)C)C(=O)N[C@@H](CC(=O)O)c3ccc4c(c3)OCO4)C(=O)C2(C)C)cc1` [Example 7, (S)-3-((S)-2-(4,4-Dimethyl-3-(4-(3-(2-methylphenyl)ureido)benzyl)-2,5-dioxoimidazolidin-1-yl)-(2-methylpropyl)acetylamino)-3-(3,4-methylenedioxyphenyl)propionic Acid] yielded an IC50 of 2.5 nM.
Work on `Cc1ccccc1NC(=O)Nc1ccc(CN2C(=O)N([C@@H](CC(C)C)C(=O)N[C@H](C)CC(=O)O)C(=O)C2(C)C)cc1` [Example 8, (R)-3-((S)-2-(4,4-Dimethyl-3-(4-(3-(2-methylphenyl)ureido)benzyl)-2,5-dioxoimidazolidin-1-yl)-2-(2-methylpropyl)acetylamino)-3-methylpropionic Acid] yielded an IC50 of 3.8 nM.
`Cc1ccccc1NC(=O)Nc1ccc(CN2C(=O)N(CC(=O)N[C@H](C)CC(=O)O)C(=O)C2(C)C)cc1` [Example 9, (R)-3-(2-(4,4-Dimethyl-3-(4-(3-(2-methylphenyl)ureido)benzyl)-2,5-dioxoimidazolidin-1-yl)acetylamino)-3-methylpropionic Acid] gave an IC50 of 20 nM.
